Laboratory results from patent US8211890B2, “5-amino-2-(1-hydroxy-ethyl)-tetrahydropyran derivatives” (Actelion Pharmaceuticals, priority 2008, dated 2012).
In brackets after ≈: the same amount, converted by molar mass.

Columns and labels:
S. aureus A798 = test: Bacterial growth minimal inhibitory concentrations (microdilution, cation-adjusted Mueller-Hinton Broth); type: cell-based; conditions: for MIC: Staphylococcus aureus
Description: Minimal inhibitory concentrations (MICs; mg/l) were determined in cation-adjusted Mueller-Hinton Broth by a microdilution method following the description given in “Methods for Dilution Antimicrobial Susceptibility Tests for Bacteria that Grow Aerobically”, Approved standard, 7th ed., Clinical and Laboratory Standards Institute (CLSI) Document M7-A7, Wayne, Pa., USA, 2006.

hERG K+ channel = hERG K+ channel (Homo sapiens, UniProt Q12809); test: In vitro blocking of hERG K+ channels (QPatch automated patch-clamp, CHO-K1 cells); type: cell-based; conditions: pH 7.4, at 10 μM, CHOhERG cells, 4 minutes of stimulation, average block on two cells
hERG K+ channel, sequence (Q12809 whole entry): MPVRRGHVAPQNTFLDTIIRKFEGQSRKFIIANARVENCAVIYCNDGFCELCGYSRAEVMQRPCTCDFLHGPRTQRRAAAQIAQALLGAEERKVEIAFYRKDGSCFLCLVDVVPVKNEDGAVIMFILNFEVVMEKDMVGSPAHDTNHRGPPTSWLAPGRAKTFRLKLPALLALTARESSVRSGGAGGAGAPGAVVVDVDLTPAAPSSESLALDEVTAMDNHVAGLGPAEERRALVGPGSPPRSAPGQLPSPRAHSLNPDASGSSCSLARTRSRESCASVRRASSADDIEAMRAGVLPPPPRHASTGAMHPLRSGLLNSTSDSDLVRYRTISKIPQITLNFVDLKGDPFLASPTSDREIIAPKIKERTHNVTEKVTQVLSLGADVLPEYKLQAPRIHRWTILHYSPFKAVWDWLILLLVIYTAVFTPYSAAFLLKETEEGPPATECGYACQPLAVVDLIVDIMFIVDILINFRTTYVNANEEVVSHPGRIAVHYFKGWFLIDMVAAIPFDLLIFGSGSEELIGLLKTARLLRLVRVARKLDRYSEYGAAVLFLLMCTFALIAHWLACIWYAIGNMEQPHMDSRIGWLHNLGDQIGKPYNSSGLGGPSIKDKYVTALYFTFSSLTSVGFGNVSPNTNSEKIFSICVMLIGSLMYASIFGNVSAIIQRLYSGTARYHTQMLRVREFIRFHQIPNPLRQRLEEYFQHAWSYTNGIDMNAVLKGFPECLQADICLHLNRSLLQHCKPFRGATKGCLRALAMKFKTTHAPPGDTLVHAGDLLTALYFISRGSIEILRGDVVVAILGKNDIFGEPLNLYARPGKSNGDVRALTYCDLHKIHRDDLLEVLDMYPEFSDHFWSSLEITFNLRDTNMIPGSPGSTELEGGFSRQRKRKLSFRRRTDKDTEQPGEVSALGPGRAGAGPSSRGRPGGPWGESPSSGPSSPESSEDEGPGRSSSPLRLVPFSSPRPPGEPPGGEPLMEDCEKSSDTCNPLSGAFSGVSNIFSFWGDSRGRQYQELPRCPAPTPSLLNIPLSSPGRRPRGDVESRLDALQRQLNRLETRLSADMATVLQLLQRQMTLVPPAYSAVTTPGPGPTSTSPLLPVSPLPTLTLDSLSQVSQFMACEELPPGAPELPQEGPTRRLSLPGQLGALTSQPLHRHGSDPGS
Description: hERG K^+ channels have been cloned from human heart and recombinant channels are stably expressed in CHO-K1 cells (CHOhERG). These cells have been purchased from bSys GmbH (CH-4052 Basel, Switzerland) and are grown in 150 mL culture flasks at 37° C. in 5% CO2. When the cells are ˜100% confluent, they are detached with 0.25% trypsin-EDTA solution and placed in the cell preparation unit of a QPatch automated patch-clamp robot (Sophion Bioscience A/S, 2750 Ballerup, Denmark). Currents through the hERG K^+ channels (IKhERG) are elicited using the following buffer solutions and voltage protocol: • extracellular solution (in mM): [NaCl]=150; [KCl]=4; [CaCl2]=1.2; [MgCl2]=1; [HEPES]=10; pH adjusted to 7.4 with NaOH; • intracellular solution (in mM): [KCl]=140; [NaCl]=10; [MgCl2]=1; [HEPES]=10; [EGTA]=5; [Mg-ATP]=5; […] After the cells have stabilized for a few minutes and the currents are steady, the amplitude of IKhERG is recorded under control conditions. Thereafter, the QPatch robot applies the test compound to the cell at the test concentration and, after 4 minutes of stimulation, the amplitude of IKhERG is recorded under test conditions. The ratio of the two amplitudes is used to define a fractional block and the average block on two cells is used to provide the effect of a given concentration (e.g. 10 μM). If, for a given test compound, a sufficient number of concentrations were tested, an apparent IC50 for inhibition of IKhERG is calculated.

[1] = comparison table of compounds of formula ICOMP

| SMILES | MIC (S. aureus A798; [1]) [µg/mL] | inhibition at 4 min, 10 µM (hERG K+ channel) [%] | MIC (S. aureus A798; microdilution) [µg/mL] | MIC for S. aureus A798 (S. aureus A798; [1]) |
| --- | --- | --- | --- | --- |
| COc1ccc2ncc(F)c(CCC3CCC(NCc4cc5c(cn4)OCCO5)CO3)c2n1 (stereo not drawn) [Reference Example No. 1, reference compound] | ≤ 0.031 | 77 | – | – |
| COc1ccc2ncc(F)c(C[C@H](O)[C@@H]3CC[C@@H](NCc4cc5c(nn4)OCCO5)CO3)c2n1 [Example 4, (1S)-1-{(2S,5R)-5-[(6,7-dihydro-[1,4]dioxino[2,3-c]pyridazin-3-ylmethyl)-amino]-tetrahydro-pyran-2-yl}-2-(3-fluoro-6-methoxy-[1,5]naphthyridin-4-yl)-ethanol] | – | 5 | ≤ 0.031 | ≦0.031 mg/l |
| COc1ccc2nccc(C[C@H](O)[C@@H]3CC[C@@H](NCc4cc5c(nn4)OCCO5)CO3)c2n1 [Example 2, (1S)-1-{(2S,5R)-5-[(6,7-dihydro-[1,4]dioxino[2,3-c]pyridazin-3-ylmethyl)-amino]-tetrahydro-pyran-2-yl}-2-(6-methoxy-[1,5]naphthyridin-4-yl)-ethanol] | – | – | 0.25 (≈ 0.551 µM) | – |
| COc1ccc2nccc(C[C@H](O)[C@@H]3CC[C@@H](NCc4cc5c(cn4)OCCO5)CO3)c2n1 [Example 1, (1S)-1-{(2S,5R)-5-[(2,3-dihydro-[1,4]dioxino[2,3-c]pyridin-7-ylmethyl)-amino]tetrahydro-pyran-2-yl}-2-(6-methoxy-[1,5]naphthyridin-4-yl)-ethanol] | – | 26 | ≤ 0.031 | ≦0.031 mg/l |
| [2H]C(N[C@@H]1CC[C@@H]([C@@H](O)Cc2c(F)cnc3ccc(OC)nc23)OC1)c1cc2c(cn1)OCCO2 (stereo partly drawn) [Example 16, (1S)-1-((2S,5R)-5-(((2,3-dihydro-[1,4]dioxino[2,3-c]pyridin-7-yl)methyl-d1)amino)tetrahydro-2H-pyran-2-yl)-2-(3-fluoro-6-methoxy-1,5-naphthyridin-4-yl)ethanol] | – | – | ≤ 0.031 | – |
| [2H]C(N[C@@H]1CC[C@@H]([C@@H](O)Cc2c(F)cnc3ccc(OC)nc23)OC1)c1cc2c(cn1)OCCS2 (stereo partly drawn) [Example 19, (S)-1-((2S,5R)-5-(((2,3-dihydro-[1,4]oxathiino[2,3-c]pyridin-7-yl)methyl-d1)amino)tetrahydro-2H-pyran-2-yl)-2-(3-fluoro-6-methoxy-1,5-naphthyridin-4-yl)ethanol] | – | – | ≤ 0.031 | – |
| COc1ccc2ccc(F)c(C[C@H](O)[C@@H]3CC[C@@H](NCc4cc5c(cn4)OCCO5)CO3)c2n1 [Example 5, (1S)-1-{(2S,5R)-5-[(2,3-dihydro-[1,4]dioxino[2,3-c]pyridin-7-ylmethyl)-amino]-tetrahydro-pyran-2-yl}-2-(7-fluoro-2-methoxy-quinolin-8-yl)-ethanol] | – | – | ≤ 0.031 | – |
| COc1ccc2ncc(F)c(C[C@H](O)[C@@H]3CC[C@@H](NCc4cc5c(nn4)OCCS5)CO3)c2n1 [Example 11, (1S)-1-{(2S,5R)-5-[(6,7-dihydro-8-oxa-5-thia-1,2-diaza-naphthalen-3-ylmethyl)-amino]-tetrahydro-pyran-2-yl}-2-(3-fluoro-6-methoxy-[1,5]naphthyridin-4-yl)-ethanol] | – | – | ≤ 0.031 | – |
| [2H]C(c1c(F)cnc2ccc(OC)nc12)[C@H](O)[C@@H]1CC[C@@H](NCc2cc3c(cn2)OCCO3)CO1 (stereo partly drawn) [Example 20, (1S)-1-((2S,5R)-5-(((2,3-dihydro-[1,4]dioxino-[2,3-c]pyridin-7-yl)methyl)amino)tetrahydro-2H-pyran-2-yl)-2-(3-fluoro-6-methoxy-1,5-naphthyridin-4-yl)ethanol-2-d1] | – | – | ≤ 0.031 | – |
| COc1cnc2ccc(F)c(C[C@H](O)[C@@H]3CC[C@@H](NCc4cc5c(nn4)OCCO5)CO3)c2n1 [Example 13, (1S)-1-{(2S,5R)-5-[(6,7-dihydro-[1,4]dioxino[2,3-c]pyridazin-3-ylmethyl)-amino]tetrahydro-pyran-2-yl}-2-(6-fluoro-3-methoxy-quinoxalin-5-yl)-ethanol] | – | – | ≤ 0.031 | – |
| [2H][C@](O)(Cc1c(F)cnc2ccc(OC)nc12)[C@@H]1CC[C@@H](NCc2cc3c(cn2)OCCO3)CO1 (single isomer, unassigned) [Example 18] | – | – | ≤ 0.031 | – |
| COc1ccc2ncc(F)c(C[C@H](O)[C@@H]3CC[C@@H](NCc4cc5c(cn4)OCCO5)CO3)c2n1 [Example 3, (1S)-1-{(2S,5R)-5-[(2,3-dihydro-[1,4]dioxino[2,3-c]pyridin-7-ylmethyl)-amino]-tetrahydro-pyran-2-yl}-2-(3-fluoro-6-methoxy-[1,5]naphthyridin-4-yl)-ethanol] | – | 29 | ≤ 0.031 | ≦0.031 mg/l |
| COc1ccc2ncc(F)c(C[C@H](O)[C@@H]3CC[C@@H](NCc4cc5c(cn4)OCCS5)CO3)c2n1 [Example 6, (1S)-1-{(2S,5R)-5-[(2,3-dihydro-4-oxa-1-thia-6-aza-naphthalen-7-ylmethyl)-amino]-tetrahydro-pyran-2-yl}-2-(3-fluoro-6-methoxy-[1,5]naphthyridin-4-yl)-ethanol] | – | – | ≤ 0.031 | – |
| COc1cnc2ccc(F)c(C[C@H](O)[C@@H]3CC[C@@H](NCc4cc5c(cn4)OCCS5)CO3)c2n1 [Example 14, (1S)-1-{(2S,5R)-5-[(2,3-dihydro-4-oxa-1-thia-6-aza-naphthalen-7-ylmethyl)-amino]-tetrahydro-pyran-2-yl}-2-(6-fluoro-3-methoxy-quinoxalin-5-yl)-ethanol] | – | – | ≤ 0.031 | – |
